# B1: Glutamine synthetase (GS) (Mus musculus) (protein)
# chain: ATSASSHLNKGIKQMYMSLPQGEKVQAMYIWVDGTGEGLRCKTRTLDCEPKCVEELPEWNFDGSSTFQSEGSNSDMYLHPVAMFRDPFRKDPNKLVLCEVFKYNRKPAETNLRHICKRIMDMVSNQHPWFGMEQEYTLMGTDGHPFGWPSNGFPGPQGPYYCGVGADKAYGRDIVEAHYRACLYAGVKITGTNAEVMPAQWEFQIGPCEGIRMGDHLWIARFILHRVCEDFGVIATFDPKPIPGNWNGAGCHTNFSTKAMREENGLKCIEEAIDKLSKRHQYHIRAYDPKGGLDNARRLTGFHETSNINDFSAGVANRGASIRIPRTVGQEKKGYFEDRRPSANCDPYAVTEAIVRTCLLNETGDEPFQYKN
# notes: pET-24a(+) plasmid pNG189, codon optimised; E. coli BL21(DE3); HisTrap and Superdex 200; homomeric decamer
# What was measured:
# [1] = target: T1, Glutamine synthetase (GS) (Mus musculus, UniProt P15105); assay: thermal shift (SyproOrange differential scanning fluorimetry); type: binding; details: varying MgCl2 and ATP; HEPES pH 7.5, 300 mM NaCl, 10% glycerol, 500 μM TCEP
# T1 construct: gene Glul; pET-24a(+) plasmid pNG189, codon optimised; E. coli BL21(DE3); HisTrap and Superdex 200; homomeric decamer
# [2] = target: T2, Glutamine synthetase (GS) (Mus musculus, UniProt P15105, T301E); assay: gamma-glutamyl hydroxamate assay, absorbance […] nm; type: biochemical
# T2 construct: gene Glul; pET-24a(+) plasmid pNG189, codon optimised; E. coli BL21(DE3); HisTrap and Superdex 200; homomeric decamer
# [3] = target: T3, Glutamine synthetase (GS) (Mus musculus, UniProt P15105, T301A); assay: gamma-glutamyl hydroxamate assay, absorbance […] nm; type: biochemical
# T3 construct: gene Glul; pET-24a(+) plasmid pNG189, codon optimised; E. coli BL21(DE3); HisTrap and Superdex 200; homomeric decamer
# [4] = target: T4, Glutamine synthetase (GS) (Mus musculus, UniProt P15105, T301V); assay: gamma-glutamyl hydroxamate assay, absorbance […] nm; type: biochemical
# T4 construct: gene Glul; pET-24a(+) plasmid pNG189, codon optimised; E. coli BL21(DE3); HisTrap and Superdex 200; homomeric decamer
# [5] = target: T1, Glutamine synthetase (GS); assay: gamma-glutamyl hydroxamate assay, absorbance […] nm; type: biochemical
# purified protein = substrate: N[C@@H](CCC(=O)O)C(=O)O; assay: purified protein; type: biochemical, Mus musculus; details: unphosphorylated GS (PKA + PKI), 20 mM ATP, 20 mM hydroxylamine, 20 mM MgCl2, imidazole pH 7.4, room temperature
# T4 sequence (P15105 2-373 T301V): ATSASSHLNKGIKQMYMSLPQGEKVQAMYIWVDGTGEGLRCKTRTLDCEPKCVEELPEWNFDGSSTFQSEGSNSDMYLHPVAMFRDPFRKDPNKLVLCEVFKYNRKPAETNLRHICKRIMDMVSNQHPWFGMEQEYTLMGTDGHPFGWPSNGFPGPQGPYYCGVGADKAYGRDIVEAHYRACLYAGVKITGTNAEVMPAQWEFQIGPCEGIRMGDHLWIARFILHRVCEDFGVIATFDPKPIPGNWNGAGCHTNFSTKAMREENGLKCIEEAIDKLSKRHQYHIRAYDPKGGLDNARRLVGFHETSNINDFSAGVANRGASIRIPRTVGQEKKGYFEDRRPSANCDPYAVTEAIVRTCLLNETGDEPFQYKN
# T3 sequence (P15105 2-373 T301A): as the sequence (P15105 2-373 T301V) above, with V300A counted along it
# T2 sequence (P15105 2-373 T301E): as the sequence (P15105 2-373 T301V) above, with V300E counted along it
molecule,measurement,setting,value
Nc1ncnc2c1ncn2[C@@H]1O[C@H](COP(=O)(O)OP(=O)(O)OP(=O)(O)O)[C@@H](O)[C@H]1O [ATP],Tm,[1],incubation with MgATP increased their melting temperatures to similar extents
CS(=N)(=O)CC[C@H](N)C(=O)O (stereo partly drawn) [methionine sulfoximine],IC50,[2],> 100 mM
same,IC50,[3],> 100 mM
same,IC50,[4],7.6 ± 0.5 mM
same,IC50,[5],0.182 ± 0.014 mM
B1,Km,purified protein,21 ± 1 mM

# From publication PMC6536897, “Phosphorylation of Glutamine Synthetase on Threonine 301 Contributes to Its Inactivation During Epilepsy” (Frontiers in Molecular Neuroscience, 2019)
